According to US8158605B2, “Azacytidine analogues and uses thereof” (Mount Sinai School of Medicine, priority 2007, dated 2012):

Assays:
[1] = tested on: HL60, K562, and U937 cells; test: Apoptosis induction in leukemia cells (AO/EB microscopy, Annexin-V/PI flow cytometry); format: cell-based, human; settings: 0.5-4 μM, 24 hours; AO/EB staining and Annexin-V/PI flow cytometry
Method: Apoptotic cells were defined using morphological criteria and fluorescence-activated cell sorting (FACS) after staining with Annexin V-FITC. For morphologic analysis, 1 μl of stock solution containing 100 μg/ml AO and 100 μg/ml EB was added to 25 μl cells suspension. The apoptitic cells and apoptotic bodies were analyzed with the aid of a fluorescence microscopy. The percentage of apoptotic cells was calculated after counting total 300 cells. For FACS analysis, […] to 5×10^6 cells were washed with PBS and then labeled with Annexin V-FICS and propidium iodide (PI) in medium-binding reagent according to the Annexin V-FITC apoptosis detection kit instruction provided by the manufacturer. Fluorescent signals of FITC and PI were detected, respectively, at 518 nm and at 620 nm on FACSCAN (Becton Dickinson, San Jose, Calif.). […] The data was analyzed by the CellQuest program (Becton Dickinson). For each analysis, 10,000 cells events were recorded.
The percentage of apoptotic cells was determined with the aid of a fluoresence microscope after staining with acridine orange and ethidium bromide (See FIG. 2A). […] The percentage of apoptotic cells was determined by flow cytometry using Annexin-V and PI staining. […] (See FIGS. 2a and 2b)

[2] = tested on: Hela cervix carcinoma cells; test: MTT cytotoxicity with or without nucleoside transport inhibitor dipyridamole; format: cell-based
Method: Dipyridamole was used as an inhibitor of the equilibrative nucleoside transporters hENT1 and hENT2. […] The cells were pre-incubated for 24 hours. Dipyridamole (10 μM) was added to the cells 30 minutes prior to the addition of the test compounds. […] Six wells were used per test concentration. The cells were incubated with test compound for 72 hours.

[3] = tested on: MT-3/ADR resistant breast carcinoma; test: MTT cytotoxicity; format: cell-based; settings: MDR1, MT-3/ADR resistant breast carcinoma (overexpress MDR-1/p-glycoprotein), 24 hours
Method: (§1) The cytotoxicity of Aza-C and 5-Aza-C-5′-elaidic acid was determined in a breast cancer cell line MT-3 and the adriablastin resistant cell line MT-3/ADR. The MT-3/ADR overexpress the MDR-1/p-glycoprotein. […] The cells were incubated for 24 hours. […] Six wells were used per test concentration. The cells were incubated with test compound for 24 hours. […] Similar activity was obtained for Aza-C and 5-Aza-C-5′-elaidic acid in the MT-3 breast carcinoma cell line, but in the MT-3/ADR resistant cell line the activity of Aza-C was lost. […] This may be of importance in the treatment of resistant cancer.

[4] = tested on: breast carcinoma cell line MT-3; test: MTT cytotoxicity; format: cell-based; settings: MT-3 breast carcinoma, 24 hours
Method: as §1

[5] = tested on: NFκB; test: LPS stimulated NFκB luciferase reporter activity in U937 cells; format: cell-based, human; settings: 10 nM, LPS 1 μg/ml, 1, 3 or 6 hours, compared to DMSO treated control
Method: NFκB-luciferase reporter genes were used to determine the influence of Aza-C and 5-Aza-C-5′-elaidic acid on NFκB-induced luciferase activity in a human monocytic cell line U937, stably transfected with a luciferase reporter containing three NFκB-binding sites. The induction of NFκB was performed using lipopolysaccharide (LPS) at 1 μg/ml for 30 minutes prior to the addition of Aza-C or 5-Aza-C-5′-elaidic acid in the concentrations 10 nM to the medium. The cells were cultured in RPMI-1640 medium including 10% fetal bovine serum. Before stimulation with LPS the cells were transferred to medium containing only 2% fetal bovine serum. Luciferase activity was measured by imaging in an IVIS imaging System 100 (Xenogen Corp., USA) after 1, 3 or 6 hours. The LPS stimulation increased with time over the 6 hours followed in the DMSO treated control cells. […] Generally, a positive stimulation of NFκB as observed for azacytidine is not positive, and it is positive that the LPS stimulation is not further increased by 5′Aza-C-5′-elaidic acid.

[6] = tested on: Jurkat; test: WST-1 cytotoxicity assay; format: cell-based; settings: Homo sapiens
Method: (§2) Human promyelocytic leukemia cell lines HL60, human histiocytic lymphoma U937, human chronic myelogenous leukemia K562, human acute T cell Jurkat, breast adenocarcinoma MCF-7, urinary bladder carcinoma 5637, prostate carcinoma DU-145 were purchased from American Type Culture Collection. All cell lines except Jurkat were maintained in RPMI 1640 medium (Gibco, Glasgow, UK) supplemented with 10% heat-inactivated fetal calf serum (FCS), 100 U/ml of penicillin, and […] streptomycin, in an atmosphere of 5% CO2 at 37° C. Jurkat cells were cultured in RPMI 1640 medium supplemented with 1.5 g/L sodium bicarbonate, 4.5 g/L glucose, 10 mM sodium pyruvate, and 10% FCS, 100 U/ml of penicillin, and […] streptomycin.
(§3) MCF-7, DU-145, and 5637 cells (1×10^4/ml) were plated and allowed to adhere and spread for 24 hours. […] Cultures were incubated with WST-1 reagent for 1 hour. The production of formazan was measured by a microplate reader (Bio-Tek Instruments, Elx 800) at 450 nm with a reference wavelength of 650 nm. Growth inhibition was determined as compared to untreated cells (%). IC50 values were calculated using CalcuSyn software (Biosoft).

[7] = tested on: U937; test: WST-1 cytotoxicity assay; format: cell-based; settings: Homo sapiens, U-937
Method: as §2, §3

[8] = tested on: MCF-7; test: WST-1 cytotoxicity assay; format: cell-based; settings: Homo sapiens, MCF7
Method: as §2, §3

[9] = tested on: 5637; test: WST-1 cytotoxicity assay; format: cell-based
Method: as §2, §3

[10] = tested on: HL60; test: WST-1 cytotoxicity assay; format: cell-based; settings: Homo sapiens, HL-60
Method: as §2, §3

[11] = tested on: DU145; test: WST-1 cytotoxicity assay; format: cell-based; settings: Homo sapiens, DU-145
Method: as §2, §3

[12] = tested on: K562; test: WST-1 cytotoxicity assay; format: cell-based; settings: Homo sapiens
Method: as §2, §3

CCCCCCCC/C=C/CCCCCCCC(=O)OC[C@H]1O[C@@H](n2cnc(N)nc2=O)[C@H](O)[C@@H]1O [CP, 5-azacytidine 5′-elaidate]
number of apoptotic cells [1]: concentration-dependent increase in the number of apoptotic cells | cytotoxic activity increased when hENT1 and hENT2 blocked by dipyridamole ([2]; Hela, with vs without dipyridamole): 50 fold | IC50 ([2]; Homo sapiens, HeLa, 72 h, Hela with dipyridamole (10 μM), MTT): 0.23 µM | IC50 [3]: 14.8 ± 12.8 µM | IC50 [4]: 17 ± 15.7 µM | LPS stimulated NFκB luciferase activity [5]: did not differ from the DMSO control | IC50 ([6]; 24 hour treatment): 1.19 µM | IC50 ([6]; 48 hour treatment): 0.88 µM | IC50 ([6]; 72 hour treatment): 0.84 µM | IC50 ([7]; U937, 24 hour treatment): 0.44 µM | IC50 ([7]; U937, 48 hour treatment): 0.6 µM | IC50 ([7]; U937, 72 hour treatment): 0.87 µM | IC50 ([8]; MCF-7, 24 hour treatment): 19.1 µM | IC50 ([8]; MCF-7, 48 hour treatment): 9.32 µM | IC50 ([8]; MCF-7, 72 hour treatment): 9.99 µM | IC50 ([9]; 5637, 24 hour treatment): 9.39 µM | IC50 ([9]; 5637, 48 hour treatment): 5.95 µM | IC50 ([9]; 5637, 72 hour treatment): 3.52 µM | IC50 ([10]; HL60, 24 hour treatment): 3.19 µM | IC50 ([10]; HL60, 48 hour treatment): 3.6 µM | IC50 ([10]; HL60, 72 hour treatment): 2.68 µM | IC50 ([11]; DU145, 24 hour treatment): 6.79 µM | IC50 ([11]; DU145, 48 hour treatment): 6.31 µM | IC50 ([11]; DU145, 72 hour treatment): 5.88 µM | IC50 ([12]; K562, 24 hour treatment): 1.26 µM | IC50 ([12]; K562, 48 hour treatment): 0.92 µM
